# Data as given in patent US7368578B2, “Five-membered heterocyclic compounds” (Takeda Pharmaceutical Company Limited, priority 2002, dated 2008).
# Target: T1, human PPARγ1 (Homo sapiens, UniProt P37231)
# T1 construct: made in house; host or cells: COS-1 cells transiently transfected with pMCMVneo-hPPARγ; crude supernatant of the lysate, not purified
# T1 sequence (P37231 1-477 isoform P37231-2): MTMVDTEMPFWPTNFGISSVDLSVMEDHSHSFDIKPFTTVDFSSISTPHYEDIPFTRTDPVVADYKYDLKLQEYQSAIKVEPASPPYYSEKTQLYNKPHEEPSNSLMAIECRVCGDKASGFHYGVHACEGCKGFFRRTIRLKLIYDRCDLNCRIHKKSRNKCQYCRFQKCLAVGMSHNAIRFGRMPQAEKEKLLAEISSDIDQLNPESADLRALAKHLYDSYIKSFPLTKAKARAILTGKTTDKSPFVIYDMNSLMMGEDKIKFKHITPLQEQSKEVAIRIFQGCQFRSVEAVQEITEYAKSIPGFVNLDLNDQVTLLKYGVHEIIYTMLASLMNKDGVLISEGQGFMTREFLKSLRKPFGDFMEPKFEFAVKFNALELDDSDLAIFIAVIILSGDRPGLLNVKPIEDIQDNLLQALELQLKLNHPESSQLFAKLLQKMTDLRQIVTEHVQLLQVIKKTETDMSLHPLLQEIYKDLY
# Assay: Measurement of human PPARγ1 binding activity ([3H]-compound A displacement)
# Conditions: cell extract with 1.5 μg/ml full length hPPARγ1, 20 nM [3H]-compound A, 4° C., 16 hrs
# Protocol: A cell extract containing 1.5 μg/ml of full length hPPARγ1 prepared in Reference Example 7a, 20 nM [^3H]-compound A (16 Ci/mmol)(Amersham Pharmacia Biotech) and a test compound were reacted in TEGM buffer at 4° C. for 16 hrs. To the reaction mixture was added activated carbon (Sigma) coated with 140 μl of dextran (Amersham Pharmacia Biotech) and gelatin (Sigma), and the mixture was left standing at 4° C. for 10 min and centrifuged at 910×g for 10 min. After centrifugation, the radioactivity of 30 μl of supernatant was measured with Topcount (Packard). In addition, a test similar to the above was conducted for the non-use of the aforementioned test compound and for the use of 100 μM of compound A instead of the aforementioned test compound, and the radioactivity was determined.
# The human PPARγ1 binding activity of the test compound was evaluated using percentages wherein the measured value of the radioactivity when 20 nM [^3H]-compound A alone was added was 100%, and the measured value of the radioactivity when 20 nM [^3H]-compound A and 100 μM of compound A were simultaneously added was 0%. Moreover, the IC50 value of the test compound was calculated based on the analysis of the compound concentration and the percentage using PRISM3.0 (Graph Pad, Inc.).
# COS-1 cells were seeded in a 150 cm^2 tissue culture flask (Corning Inc.) at 5×10^6 cells, and cultured under 37° C. 5% CO2 conditions for 24 hrs. Transfection was performed using lipofectamine (GIBCO BRL). To be specific, 125 μl of lipofectamine, 100 μl of PLUS Reagent and 15 μg of hPPARγ expression plasmid (plasmid pMCMVneo-hPPARγ obtained in Reference Example 6a) were mixed with opti-MEM (GIBCO BRL) to give a transfection mixture. The transfection mixture (25 ml) was added to COS-1 cells and the cells were cultured under 37° C. 5% CO2 conditions for 3 hrs. Then 25 ml of DMEM medium (Nikken Biomedical Laboratory) containing 10% FCS treated with activated carbon (Sigma) was added to the cells and the cells were cultured under 37° C. 5% CO2 conditions. After 24 hrs., the medium was substituted with 50 ml of DMEM medium (Nikken Biomedical Laboratory) containing 5% FCS treated with activated carbon, and the cells were cultured under 37° C., 5% CO2 conditions. After 48 hrs, the transfected cells were recovered and washed with TEG buffer (10 mM Tris-HCl (pH 7.2), 50 mM EDTA, 10% glycerol). The cells were suspended in 1 ml TEGM buffer (10 mM Tris-HCl (pH 7.2), 1 mM EDTA, 10% glycerol, 7 μl/100 ml β-mercaptoethanol, 10 mM Na molybdate, 1 mM dithiothreitol, 2 tablets/100 ml Protease inhibitor Cocktail tablets (Boehringer Mannheim)) and, for cell lysis, frozen with liquid nitrogen and thawed on ice. To remove the debris of the cells, the extract was centrifuged at 228,000×g, 4° C. for 20 min. and the supernatant was preserved at −80° C. until use.
row,IC50,Compound
1,3.6 nM,"CCc1nc(/C=C/c2cn(-c3ccccc3)nc2OCc2ccc(OCc3nc(-c4cccc(C(=O)O)c4)oc3C)c(OC)c2)cs1 [Example 224, 3-[4-({4-[({4-[(E)-2-(2-ethyl-1,3-thiazol-4-yl)ethenyl]-1-phenyl-1H-pyrazol-3-yl}oxy)methyl]-2-methoxyphenoxy}methyl)-5-methyl-1,3-oxazol-2-yl]benzoic acid]"
2,120 nM,"COc1cc(COc2nn(-c3ccccc3)cc2/C=C/C#N)ccc1OCc1nc(-c2ccccc2)oc1C [Example 282, (E)-3-(3-{[3-methoxy-4-(5-methyl-2-phenyl-1,3-oxazol-4-ylmethoxy)benzyl]oxy}-1-phenyl-1H-pyrazol-4-yl)-2-propenonitrile]"
3,75 nM,"CCOC(=O)/C=C/c1cn(-c2ccccc2)nc1OCc1ccc(OCc2nc(-c3ccccc3)oc2C)c(OC)c1 [Example 284, ethyl (E)-3-(3-{[3-methoxy-4-(5-methyl-2-phenyl-1,3-oxazol-4-ylmethoxy)benzyl]oxy}-1-phenyl-1H-pyrazol-4-yl)-2-propenoate]"
4,7.4 nM,CCc1nc(/C=C/c2cn(-c3ccccc3)nc2OCc2ccc(OCc3nc(-c4cccc(C(=O)O)c4)oc3C)c(OC)c2)co1 [Example 307]
5,66 nM,"CCc1nc(/C=C/c2cn(-c3ccccc3)nc2OCc2ccc(OCc3nc(-c4ccc(CC(=O)O)cc4)oc3C)c(OC)c2)cs1 [Example 337, {4-[4-({4-[({4-[(E)-2-(2-ethyl-1,3-thiazol-4-yl)ethenyl]-1-phenyl-1H-pyrazol-3-yl}oxy)methyl]-2-methoxyphenoxy}methyl)-5-methyl-1,3-oxazol-2-yl]phenyl}acetic acid]"
6,46 nM,"CCn1cnc(/C=C/c2cn(-c3ccccc3)nc2OCc2ccc(OCc3nc(-c4ccc(CC(=O)O)cc4)oc3C)c(OC)c2)c1 [Example 344, (4-{4-[(4-[({4-[(E)-2-(1-ethyl-1H-imidazol-4-yl)ethenyl]-1-phenyl-1H-pyrazol-3-yl}oxy)methyl]-2-methoxyphenoxy)methyl]-5-methyl-1,3-oxazol-2-yl}phenyl)acetic acid]"
7,150 nM,"COc1cc(COc2nn(-c3ccccc3)cc2/C=C/c2csc(C)n2)ccc1OCc1nc(-c2ccc(CC(=O)O)cc2)oc1C [Example 357, {4-[4-({2-methoxy-4-[({4-[(E)-2-(2-methyl-1,3-thiazol-4-yl)ethenyl]-1-phenyl-1H-pyrazol-3-yl}oxy)methyl]phenoxy}methyl)-5-methyl-1,3-oxazol-2-yl]phenyl}acetic acid]"
8,38 nM,"COc1cc(COc2nn(-c3ccccc3)cc2/C=C/c2csc(C(C)C)n2)ccc1OCc1nc(-c2ccc(CC(=O)O)cc2)oc1C [Example 361, {4-[4-({4-[({4-[(E)-2-(2-isopropyl-1,3-thiazol-4-yl)ethenyl]-1-phenyl-1H-pyrazol-3-yl}oxy)methyl]-2-methoxyphenoxy}methyl)-5-methyl-1,3-oxazol-2-yl]phenyl}acetic acid]"
9,83 nM,"CCc1nc(/C=C/c2cn(-c3ccccc3)nc2OCc2ccc(OCc3nc(-c4ccc(CC(=O)O)cc4)oc3C)c(OC)c2)co1 [Example 369, {4-[4-({4-[({4-[(E)-2-(2-ethyl-1,3-oxazol-4-yl)ethenyl]-1-phenyl-1H-pyrazol-3-yl}oxy)methyl]-2-methoxyphenoxy}methyl)-5-methyl-1,3-oxazol-2-yl]phenyl}acetic acid]"
10,32 nM,"COc1cc(COc2nn(-c3ccccc3)cc2/C=C/c2coc(C(C)C)n2)ccc1OCc1nc(-c2ccc(CC(=O)O)cc2)oc1C [Example 370, {4-[4-({4-[({4-[(E)-2-(2-isopropyl-1,3-oxazol-4-yl)ethenyl]-1-phenyl-1H-pyrazol-3-yl}oxy)methyl]-2-methoxyphenoxy}methyl)-5-methyl-1,3-oxazol-2-yl]phenyl}acetic acid]"

row,Compound,IC50
1,"CCOP(=O)(/C=C/c1cn(-c2ccccc2)nc1OCc1ccc(OCc2nc(-c3cccc(C(=O)O)c3)oc2C)c(OC)c1)OCC [Example 203, 3-[4-({4-[({4-[(E)-2-(diethoxyphosphoryl)ethenyl]-1-phenyl-1H-pyrazol-3-yl}oxy)methyl]-2-methoxyphenoxy}methyl)-5-methyl-1,3-oxazol-2-yl]benzoic acid]",4.8 nM
2,"CCOP(=O)(/C=C/c1cn(-c2ccccc2)nc1OCc1ccc(OCc2nc(-c3cccc(C(=O)OC)c3)oc2C)c(OC)c1)OCC [Example 211, methyl 3-[4-({4-[({4-[(E)-2-(diethoxyphosphoryl)ethenyl]-1-phenyl-1H-pyrazol-3-yl}oxy)methyl]-2-methoxyphenoxy}methyl)-5-methyl-1,3-oxazol-2-yl]benzoate]",27 nM
3,"CCOP(=O)(/C=C/c1cn(-c2ccccc2)nc1OCc1ccc(OCc2nc(-c3cccc(C(N)=O)c3)oc2C)c(OC)c1)OCC [Example 239, diethyl (E)-2-(3-{[4-({2-[3-(carbamoyl)phenyl]-5-methyl-1,3-oxazol-4-yl}methoxy)-3-methoxybenzyl]oxy}-1-phenyl-1H-pyrazol-4-yl)ethenylphosphonate]",61 nM
4,"CCOP(=O)(/C=C/c1cn(-c2ccccc2)nc1OCc1ccc(OCc2nc(-c3ccc(CC(=O)O)cc3)oc2C)c(OC)c1)OCC [Example 241, {4-[4-({4-[({4-[(E)-2-(diethoxyphosphoryl)ethenyl]-1-phenyl-1H-pyrazol-3-yl}oxy)methyl]-2-methoxyphenoxy}methyl)-5-methyl-1,3-oxazol-2-yl]phenyl}acetic acid]",69 nM
5,"CCOP(=O)(/C=C/c1cn(-c2ccccc2)nc1OCc1ccc(OCc2nc(-c3cccc(CC(=O)O)c3)oc2C)c(OC)c1)OCC [Example 249, {3-[4-({4-[({4-[(E)-2-(diethoxyphosphoryl)ethenyl]-1-phenyl-1H-pyrazol-3-yl}oxy)methyl]-2-methoxyphenoxy}methyl)-5-methyl-1,3-oxazol-2-yl]phenyl}acetic acid]",33 nM
6,"CCOP(=O)(/C=C/c1cn(-c2ccccc2)nc1OCc1ccc(OCc2nc(-c3ccc(OC)c(C(=O)O)c3)oc2C)c(OC)c1)OCC [Example 252, 5-{4-({4-[({4-[(E)-2-(diethoxyphosphoryl)ethenyl]-1-phenyl-1H-pyrazol-3-yl}oxy)methyl]-2-methoxyphenoxy}methyl)-5-methyl-1,3-oxazol-2-yl}-2-methoxybenzoic acid]",23 nM
7,"CCOP(=O)(/C=C/c1cn(-c2ccccc2)nc1OCc1ccc(OCc2nc(/C=C/C(=O)O)oc2C)c(OC)c1)OCC [Example 315, (2E)-3-[4-({4-[({4-[(E)-2-(diethoxyphosphoryl)ethenyl]-1-phenyl-1H-pyrazol-3-yl}oxy)methyl]-2-methoxyphenoxy}methyl)-5-methyl-1,3-oxazol-2-yl]-2-propenoic acid]",500 nM
8,"CCOP(=O)(/C=C/c1cn(-c2ccccc2)nc1OCc1ccc(OCc2nc(-c3cccc(-c4nnn[nH]4)c3)oc2C)c(OC)c1)OCC [Example 336, {(E)-2-(3-{[3-methoxy-4-({5-methyl-2-[3-(1H-tetrazol-5-yl)phenyl]-1,3-oxazol-4-yl}methoxy)benzyl]oxy}-1-phenyl-1H-pyrazol-4-yl)ethenyl}phosphonate diethyl]",7.7 nM
